The values below come from ChEMBL document CHEMBL1201862, “PubChem BioAssay data set” (2004).

What all share (assay): growth of human tumour cells (NCI), 48 h
Assay [1] has as its system XF498.
Assay [2] concerns LXFL 529.
Assay [3] has as its system HOP-18.
Assay [4] relates to DLD-1.
In assay [5] the test system is SNB-78.
For assay [6], the system named is M19-MEL.
The subject of assay [7] is DMS-273.
For assay [8], the system named is RXF 631.
For assay [9], the system named is DMS-114.

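Where inhibition never reached the appropriate level, the endpoint shown equals the highest concentration tested. Otherwise, values were interpolated linearly from a five-concentration, 48-hour dose response in 96-well plates. GI50 marks 50% less growth.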 Activity calls are given as the source filed them. Rule as the data show it: active = GI50 up to about 1.1 µM and inactive = higher.

Take `Nc1nc(O)c([N+](=O)[O-])c(NCCOCP(=O)(O)O)n1`: the GI50 in assay [1], in assay [2], in [3], in assay [4], in [5] and in assay [6] was > 100 µM (inactive) each time. The GI50 in assay [7] is > 100 µM (inactive).

On to `Cc1nc2ccccc2nc1NS(=O)(=O)c1ccc(N)cc1`, for which the GI50 in assay [1], in [2], in assay [3], in [4], in assay [5] and in assay [6] was > 100 µM (inactive) in each case. The GI50 in assay [7] and in assay [8] was > 100 µM (inactive) throughout.

As for `CN(C)CC1CC/C(=C\c2ccc(O)cc2)C1=O` (stereo not given), the GI50 in [1] was 5.82 µM (inactive); in assay [2], 1.85 µM (inactive); in [3], 6.35 µM (inactive); in assay [4], 2.58 µM (inactive); in assay [5], 11.4 µM (inactive); in assay [6], 2.78 µM (inactive). Besides, the GI50 is 10 µM (inactive) in assay [9] and 3.3 µM (inactive) in [7].

Take `C/C(=N\N=C(/S)N(C)C)c1cccc[n+]1[O-]`: the GI50 in assay [2] was 0.466 µM (active); in [3], > 100 µM (inactive); in assay [4] it was 2.18 µM (inactive); in assay [5] it was > 100 µM (inactive); in assay [6], > 100 µM (inactive); in assay [9], 0.482 µM (active). The GI50 is 12.5 µM (inactive) in [7] and > 100 µM (inactive) in [8].

In the case of `O=C1C=C(Br)C(=O)C12CCc1ccccc12` (stereo not given), the GI50 in assay [1] was 15.3 µM (inactive); in assay [2], 4.45 µM (inactive); in assay [3], 7.53 µM (inactive); in [4] it was 9.48 µM (inactive); in assay [5], 22.6 µM (inactive); in assay [6], 19 µM (inactive). The GI50 in [9] is 20.7 µM (inactive); in assay [7] it was 18.3 µM (inactive).

On to `O=c1[nH]c(=O)n(C2CC(O)C(CO)O2)cc1COCC(F)(F)F` (stereo not given), for which the GI50 in assay [1], in [2], in assay [4], in [5], in assay [6] and in [9] was > 100 µM (inactive) in each case. The GI50 in [7] and in assay [8] was > 100 µM (inactive) each time.

`CO/S(=N/S(=O)(=O)c1ccccc1)c1ccccc1[N+](=O)[O-]` (stereo not given): the GI50 in assay [1], in assay [2], in assay [3], in assay [4], in assay [6] and in assay [7] was > 100 µM (inactive) each time. Further, in assay [8], the GI50 was > 100 µM (inactive).

As for `S=P(N1CCCC1)(N1CC1)N1CC1`, the GI50 in assay [1] is > 100 µM (inactive); in [3], > 100 µM (inactive); in assay [4], > 100 µM (inactive); in assay [5] it was > 100 µM (inactive); in [6], > 100 µM (inactive); in assay [9] it was 99.5 µM (inactive). The GI50 in assay [7] is > 100 µM (inactive).

In the case of `NC1=NN(c2ccccc2)C(=O)C1C(=O)CCC(=O)Nc1cccc(C(F)(F)F)c1` (stereo not given), the GI50 in assay [2] was 36.8 µM (inactive); in assay [3], > 100 µM (inactive); in [4] it was 48.8 µM (inactive); in [5], > 100 µM (inactive); in assay [6], > 100 µM (inactive); in assay [9], > 100 µM (inactive). In addition, the GI50 in [7] and in assay [8] was > 100 µM (inactive) throughout.

`CC(C)(C)/N=C1/CC(C)(C)c2ccccc2/C(=N\c2ccccc2)S1`: the GI50 in assay [1] is 21.1 µM (inactive); in [2], 29.9 µM (inactive); in [4], 26.3 µM (inactive); in assay [5] it was 41.5 µM (inactive); in assay [6], 36 µM (inactive); in [9], 26.7 µM (inactive). Further, the GI50 in [7] is 32.1 µM (inactive).

On to `O=C1C(=O)N(c2ccc(Cl)c(Cl)c2)C(=O)C(=O)C1c1nc2ccccc2o1`, for which the GI50 in assay [1] was 51.5 µM (inactive); in [2] it was 93.8 µM (inactive); in [4], 59.2 µM (inactive); in assay [5], 66.4 µM (inactive); in [6], 58.7 µM (inactive); in [7], 70.3 µM (inactive). For the same compound, in assay [8], the GI50 is 43.5 µM (inactive).

Turning to `O=C(CCC(=O)Nc1ccc(Cl)c(Cl)c1)CC(=O)c1ccc(Cl)cc1`, the GI50 in assay [1] was > 100 µM (inactive); in assay [2], 83.9 µM (inactive); in [3], 80.7 µM (inactive); in assay [4], > 100 µM (inactive); in [6], > 100 µM (inactive); in assay [9], > 100 µM (inactive). In addition, the GI50 in assay [7] is > 100 µM (inactive).

As to `C#CCOCn1cnc2c(N)ncnc21`, the GI50 in assay [1], in assay [2], in assay [3], in assay [4], in assay [5] and in assay [6] was > 100 µM (inactive) throughout. For the same compound, the GI50 in assay [9], in [7] and in [8] was > 100 µM (inactive) throughout.

As for `O=C(c1ccc([N+](=O)[O-])cc1[N+](=O)[O-])N(/N=C/C=C/c1ccccc1)c1nnc(-c2ccccc2)c(-c2ccccc2)n1`, the GI50 in assay [1] was 17.6 µM (inactive); in [4], 34.8 µM (inactive); in [6], 36.7 µM (inactive); in [9] it was 29.2 µM (inactive); in assay [7] it was 23.7 µM (inactive).

For `N#CC(NNC(=O)c1ccccc1O)c1ccc(O)cc1` (stereo not given), the GI50 in [2] was 4.06 µM (inactive); in assay [3], 9.1 µM (inactive); in [6], 5.38 µM (inactive); in [9], 2.3 µM (inactive); in assay [7] it was 3.32 µM (inactive).

On to `COC(=O)C1=CC(=O)[C@@H]2CCCC[C@H]12`, for which the GI50 in [2], in assay [3], in assay [4], in assay [5], in assay [6] and in [9] was > 100 µM (inactive) in each case. Also, the GI50 in [7] and in assay [8] was > 100 µM (inactive) each time.

Take `O=C(CC(=O)n1nc(-c2ccccc2)c(/N=N/c2ccccc2Cl)c1-c1ccccc1)Nc1ccc(Cl)cc1`: the GI50 in [1] was > 100 µM (inactive); in [2], > 100 µM (inactive); in assay [3], > 100 µM (inactive); in assay [4], > 43.6 µM (inactive); in assay [6], 21.7 µM (inactive); in assay [9] it was > 41.7 µM (inactive). In [7], the GI50 was > 64.3 µM (inactive).

`Cc1ccc(C2=C(c3ccccc3)C(Br)(c3ccccc3)C(c3ccccc3)=C2c2ccc(C)cc2)cc1`: the GI50 in [1], in assay [2], in assay [3], in [4], in assay [5] and in assay [6] was > 100 µM (inactive) throughout. Further, in [9], the GI50 is > 100 µM (inactive).

Consider `Cc1ccccc1C(=O)c1ccccc1O`, for which the GI50 in [1], in assay [2], in [3], in assay [4], in assay [5] and in assay [6] was > 100 µM (inactive) throughout. Moreover, the GI50 in assay [9], in assay [7] and in [8] was > 100 µM (inactive) throughout.

For the compound `N#CCCC(C#N)(C#N)CCC#N`, the GI50 in [1], in [2], in assay [6], in assay [9] and in assay [7] was > 100 µM (inactive) throughout.

Take `COc1ccc(Cc2cc(OC)c(OC)c(OC)c2)cc1`: the GI50 in assay [2] was 0.541 µM (active); in assay [4], 0.33 µM (active); in assay [5], 3.34 µM (inactive); in assay [7], 0.104 µM (active).

Regarding `CN(CO)c1nc(N(C)CO)nc(N(C)CO)n1` [TRIMELAMOL], the GI50 was 5.75 µM (inactive) in assay [1]; 18.8 µM (inactive) in [3]; 10.2 µM (inactive) in assay [4]; 9.77 µM (inactive) in assay [5]; 8.04 µM (inactive) in assay [6]; 7.6 µM (inactive) in assay [7].
